# According to BindingDB's records for doi:10.1111/cbdd.12546 (Zhejiang University of Technology, 2015):
# Target: Glycogen synthase kinase-3 beta (Homo sapiens, UniProt P49841)
# Assay: Kinase Assay
# Glycogen synthase kinase-3 beta, sequence (P49841 whole entry): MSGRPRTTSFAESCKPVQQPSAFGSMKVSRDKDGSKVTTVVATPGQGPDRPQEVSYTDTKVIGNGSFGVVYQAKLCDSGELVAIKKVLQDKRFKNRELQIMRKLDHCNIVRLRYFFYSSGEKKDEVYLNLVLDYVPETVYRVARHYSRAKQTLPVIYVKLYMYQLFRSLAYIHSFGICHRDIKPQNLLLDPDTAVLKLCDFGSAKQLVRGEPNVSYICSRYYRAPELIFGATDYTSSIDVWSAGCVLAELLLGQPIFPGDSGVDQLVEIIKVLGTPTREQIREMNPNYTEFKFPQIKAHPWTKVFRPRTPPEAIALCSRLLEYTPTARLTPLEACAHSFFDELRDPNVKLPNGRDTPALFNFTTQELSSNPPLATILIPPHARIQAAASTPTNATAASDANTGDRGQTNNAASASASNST
row,IC50 [µM],SMILES
1,0.07,"Cn1cc(C2=C(c3coc4ncccc34)C(=O)NC2=O)c2cc(Br)ccc21 [3-(5-Bromo-1-methyl-1H-indol-3-yl)-4-(furo[2,3-b]pyridin-3-yl)-1H-pyrrole-2,5-dione (5h)]"
2,1.31,"COc1ccc2c(c1)c(C1=C(c3coc4ncccc34)C(=O)NC1=O)cn2C [3-(Furo[2,3-b]pyridin-3-yl)-4-(5-methoxy-1-methyl-1H-indol-3-yl)-1H-pyrrole-2,5-dione (5j)]"
3,0.17,"Cn1cc(C2=C(c3coc4ncccc34)C(=O)NC2=O)c2cc(Cl)ccc21 [3-(5-Chloro-1-methyl-1H-indol-3-yl)-4-(furo[2,3-b]pyridin-3-yl)-1H-pyrrole-2,5-dione (5f)]"
4,0.57,"CCCCn1cc(C2=C(c3coc4ncccc34)C(=O)NC2=O)c2ccccc21 [3-(1-Butyl-1H-indol-3-yl)-4-(furo[2,3-b]pyridin-3-yl)-1H-pyrrole-2,5-dione (5l)]"
5,0.29,"Cc1cccc2c(C3=C(c4coc5ncccc45)C(=O)NC3=O)cn(C)c12 [3-(1,7-dimethyl-1H-indol-3-yl)-4-(furo[2,3-b]pyridin-3-yl)-1H-pyrrole-2,5-dione (5c)]"
6,0.19,"O=C1NC(=O)C(c2cn(CCCn3ccnc3)c3ccc(Br)cc23)=C1c1coc2ncccc12 [3-(1-(3-(1H-Imidazol-1-yl)propyl)-5-bromo-1H-indol-3-yl)-4-(furo[2,3-b]pyridin-3-yl)-1H-pyrrole-2,5-dione (5o)]"
7,0.69,"O=C1NC(=O)C(c2cn(CCCN3CCOCC3)c3ccccc23)=C1c1coc2ncccc12 [3-(Furo[2,3-b]pyridin-3-yl)-4-(1-(3-morpholinopropyl)-1H-indol-3-yl)-1H-pyrrole-2,5-dione (5r)]"
8,0.31,"O=C1NC(=O)C(c2cn(CCCO)c3ccccc23)=C1c1coc2ncccc12 [3-(Furo[2,3-b]pyridin-3-yl)-4-(1-(3-hydroxypropyl)-1H-indol-3-yl)-1H-pyrrole-2,5-dione (5q)]"
9,1.94,"Cn1cc(C2=C(c3coc4ncccc34)C(=O)NC2=O)c2ccc(Br)cc21 [3-(6-Bromo-1-methyl-1H-indol-3-yl)-4-(furo[2,3-b]pyridin-3-yl)-1H-pyrrole-2,5-dione (5i)]"
10,0.39,"Cn1cc(C2=C(c3coc4ncccc34)C(=O)NC2=O)c2cc(F)ccc21 [3-(5-Fluoro-1-methyl-1H-indol-3-yl)-4-(furo[2,3-b]pyridin-3-yl)-1H-pyrrole-2,5-dione (5d)]"
11,0.24,"O=C1NC(=O)C(c2cn(CCCn3ccnc3)c3ccc(Cl)cc23)=C1c1coc2ncccc12 [3-(1-(3-(1H-Imidazol-1-yl)propyl)-5-chloro-1H-indol-3-yl)-4-(furo[2,3-b]pyridin-3-yl)-1H-pyrrole-2,5-dione (5p)]"
12,0.53,"C=CCn1cc(C2=C(c3coc4ncccc34)C(=O)NC2=O)c2ccccc21 [3-(1-Allyl-1H-indol-3-yl)-4-(furo[2,3-b]pyridin-3-yl)-1H-pyrrole-2,5-dione (5k)]"
13,0.56,"Cn1cc(C2=C(c3coc4ncccc34)C(=O)NC2=O)c2ccc(F)cc21 [3-(6-Fluoro-1-methyl-1H-indol-3-yl)-4-(furo[2,3-b]pyridin-3-yl)-1H-pyrrole-2,5-dione (5e)]"
14,1.78,"O=C1NC(=O)C(c2coc3ncccc23)=C1c1c[nH]c2ccccc12 [3-(Furo[2,3-b]pyridin-3-yl)-4-(1H-indol-3-yl)-1H-pyrrole-2,5-dione (5a)]"
15,0.28,"Cn1cc(C2=C(c3coc4ncccc34)C(=O)NC2=O)c2ccccc21 [3-(Furo[2,3-b]pyridin-3-yl)-4-(1-methyl-1H-indol-3-yl)-1H-pyrrole-2,5-dione (5b)]"
16,0.19,"CC(C)n1cc(C2=C(c3coc4ncccc34)C(=O)NC2=O)c2ccccc21 [3-(Furo[2,3-b]pyridin-3-yl)-4-(1-isopropyl-1H-indol-3-yl)-1H-pyrrole-2,5-dione (5m)]"
17,0.21,"O=C1NC(=O)C(c2cn(CCCn3ccnc3)c3ccccc23)=C1c1coc2ncccc12 [3-(1-(3-(1H-Imidazol-1-yl)propyl)-1H-indol-3-yl)-4-(furo[2,3-b]pyridin-3-yl)-1H-pyrrole-2,5-dione (5n)]"
18,1.84,"Cn1cc(C2=C(c3coc4ncccc34)C(=O)NC2=O)c2ccc(Cl)cc21 [3-(6-Chloro-1-methyl-1H-indol-3-yl)-4-(furo[2,3-b]pyridin-3-yl)-1H-pyrrole-2,5-dione (5g)]"
